Patent US20040033902A1, “Diphenyl ehter induction systemic resistance in plants” (priority 2002, published 2004)

Columns and labels:
[1] = test system: snapped cotyledons of Williams variety soybean; assay: Snapped cotyledon assay, isoflavone and glyceollin induction, HPLC (Example 4); format: cell-based; conditions: 7 day old Williams soybean, average of two experiments; for Glyceollin Induction: 48 h, tested 10 uM to 1 mM alone and with 30 ug/ml glucan elicitor from Phytophthora sojae, concentration not given; for Total Isoflavone Induction: 48 h constant light, tested 10 uM to 1 mM, concentration of the printed value not stated, standard error less than 15%
Protocol: The snapped cotyledon assay is a minimal wound assay used to investigate the effects of test compounds in a non-primed background. The assay is performed by snapping cotyledons in two and placing the petiole side down in 0.5% water agar. Ten snapped cotyledons are used per treatment, and the subepidermal cells exposed by snapping are treated with glucan defense elicitor and/or the effector (i.e., diphenyl ether) being examined. The cotyledons are incubated in the light for 48 h as in the cut cotyledon assay. Both proximal (first cell layer) and distal (second and third cell layers) are harvested for analysis by HPLC (see below). Full details of this assay can be found in the publication: Graham, T. L. and Graham, M. Y. 1996. Signaling in soybean phenylpropanoid responses: dissection of primary, secondary and conditioning effects of light, wounding and elicitor treatments. Plant Physiol. 110:1123-1133.
The snapped cotyledon assay is “naive.” That is, it is not pre-disposed or primed for competency for the elicitation of phytoalexin glyceollin in response to the glucan elicitor. Thus, treatment with the glucan elicitor induces the formation of the isoflavones daidzein and genistein, but very little glyceollin. This is an excellent assay to study the effects of a chemical treatment on isoflavone metabolism by itself or in combination with the glucan. In the absence of the glucan, it gives an excellent picture of the effects of the compound alone on isoflavone metabolism. In the presence of the glucan, it tells us if the test compound can induce elicitation competency for the glyceollin response to the glucan.
High performance liquid chromatography (HPLC) is the method of choice for determining the levels of isoflavone defense compounds in soybean. With a single HPLC analysis, one gets a complete and quantitative profile of up to 50 or more aromatic compounds, including all the isoflavones and their conjugates and the phytoalexins, including glyceollin. As little as 20 mg of plant tissue is needed and the method can be readily applied to cotyledon, leaf or any soybean tissue. This analytical method allows us to determine the nmoles/g of each metabolite, which can then readily be processed to compare the percent increase or decrease of a given metabolite in comparison to either water or glucan-treated control tissues. Routinely, tissues are extracted in 80% ethanol and subjected to water/acetonitrile gradient elution from a C18 reverse phase HPLC column. Full details of this procedure can be found in the publication: Graham, T. L. 1991. A Rapid, High Resolution High Performance Liquid Chromatography Profiling Procedure for Plant and Microbial Aromatic Secondary Metabolites. Plant Physiol. 95:584-593. […]

[2] = test system: cut cotyledons (Williams cotyledons); assay: Cut cotyledon assay, isoflavones (Williams cotyledons); format: cell-based, soybean; conditions: 50-500 uM
Protocol: The cut cotyledon assay is used to investigate both the ability of a compound (effector) to activate basal elicitation competency in plants, and to evaluate the ability of a secondary compound (elicitor) to enhance glyceollin elicitation competency in plants in which the isoflavone pools were “loaded” by the action of the effector.
The level of isoflavones in the cotyledon tissues are measured after the addition of different diphenyl ethers to determine the effectiveness of each in inducing the basal production of isoflavones in cotyledon tissues (effector studies). In the elicitor studies, the addition of diphenyl ether first “primes” the cut cotyledon. […] Thus, the ability of a compound to enhance glyceollin elicitation competency by “loading” the isoflavone pools can also be measured.
Cotyledons from 7-8 day old soybean seedlings are removed from the plant and cut on the lower surface to expose subepidermal tissues. […] Tissues are analyzed by HPLC as noted below. […]
High performance liquid chromatography (HPLC) is the method of choice for determining the levels of isoflavone defense compounds in soybean. With a single HPLC analysis, one gets a complete and quantitative profile of up to 50 or more aromatic compounds, including all the isoflavones and their conjugates and the phytoalexins, including glyceollin. […]

O=C(O)c1cc(Oc2ccc(C(F)(F)F)cc2Cl)ccc1[N+](=O)[O-] [Acifluorfen, acifluorfen]
Glyceollin Induction [1]: +122% | Total Isoflavone Induction [1]: +56%

CS(=O)(=O)NC(=O)c1cc(Oc2ccc(C(F)(F)F)cc2Cl)ccc1[N+](=O)[O-] [Fomesafen, fomesafen]
Glyceollin Induction [1]: +233% | Total Isoflavone Induction [1]: +85%

N[C@@H](Cc1cc(I)c(Oc2cc(I)c(O)c(I)c2)c(I)c1)C(=O)O [thyroxine]
range of increase of isoflavones over the concentration range [2]: 20-40%
